ChEMBL document CHEMBL5247584, “Design, synthesis and evaluation of fused hybrids with acetylcholinesterase inhibiting and Nrf2 activating functions for Alzheimer's disease” (Eur J Med Chem, 2022)
Calls of active or inactive are those of the source.

Tests used:
Mus musculus [1] = assay: Neuroprotective activity against Abeta1-42-induced ICR mouse at 10 mg/kg, po by ELISA analysis; format: functional, organism-based
[2] = biological target: T1, Nuclear factor erythroid 2-related factor 2 (Rattus norvegicus) (UniProt O54968); assay: Activation of Nrf2 pathway in rat PC-12 cells assessed as fold increase in GCLM level at 20 uM measured at 2 hrs by qRT-PCR analysis; format: cell-based; settings: PC12, filed as activator
T1 sequence (whole entry): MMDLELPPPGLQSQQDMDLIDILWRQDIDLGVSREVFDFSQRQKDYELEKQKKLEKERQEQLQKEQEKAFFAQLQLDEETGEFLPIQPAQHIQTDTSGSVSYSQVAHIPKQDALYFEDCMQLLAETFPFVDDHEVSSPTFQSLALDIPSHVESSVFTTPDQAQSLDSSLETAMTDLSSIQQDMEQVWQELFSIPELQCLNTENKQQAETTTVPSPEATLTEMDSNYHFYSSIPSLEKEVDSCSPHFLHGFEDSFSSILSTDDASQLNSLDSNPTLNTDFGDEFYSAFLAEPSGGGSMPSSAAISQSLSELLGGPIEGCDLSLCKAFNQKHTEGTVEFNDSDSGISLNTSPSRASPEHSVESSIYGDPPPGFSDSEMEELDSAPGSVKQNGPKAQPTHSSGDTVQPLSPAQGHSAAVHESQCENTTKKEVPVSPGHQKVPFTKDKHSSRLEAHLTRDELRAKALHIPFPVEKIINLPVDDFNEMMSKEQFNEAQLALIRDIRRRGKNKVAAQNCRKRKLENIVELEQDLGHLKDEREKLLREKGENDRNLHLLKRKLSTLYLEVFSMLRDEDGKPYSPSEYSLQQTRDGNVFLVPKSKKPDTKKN

SH-SY5Y [3] = assay: Neuroprotective activity against Abeta1-42-induced human SH-SY5Y cells assessed as reduction in cell damage preinubated for 2 hrs followed by Abeta1-42 induction and measured after 24 hrs by MTT assay; format: functional, cell-based; settings: time 26.0 hrs
[4] = […] in rat PC12 cells assessed as morphological changes; format: toxicity, cell-based; settings: pc-12
Mus musculus [5] = assay: Antiinflammatory activity Abeta1-42-induced against ICR mouse assessed as increase in TGF-beta1 level at 10 mg/kg, po in presence of presence of donepezil by ELISA analysis; format: functional, organism-based
[6] = biological target: T1, Nuclear factor erythroid 2-related factor 2 (Rattus norvegicus); assay: Activation of Nrf2 pathway in rat PC-12 cells assessed as increase in Nrf2 accumulation in nucleus at 20 uM measured after 1 to 5 hrs by Western blot analysis; format: cell-based; settings: PC12, filed as activator, time 1-5 hrs
BV-2 [7] = assay: Neuroprotective activity against LPS-induced mouse BV-2 cells assessed as inhibition of ROS production at 1 to 40 uM preincubated for 1 hr followed by LPS stimulation and measured after 24 hrs by DCFH-DA staining based microplate reader anlaysis; format: functional, cell-based; settings: dose 1-40 µM, time 25.0 hrs
[8] = biological target: T1, Nuclear factor erythroid 2-related factor 2 (Rattus norvegicus); assay: Activation of Nrf2 pathway in rat PC-12 cells assessed as fold increase in HO-1 level at 20 uM measured at 2 hrs by qRT-PCR analysis; format: cell-based; settings: PC12, filed as activator
BV-2 [9] = assay: Antiinflammatory activity against LPS-injured mouse BV-2 cells assessed as decrease in IL-6 level at 5 uM by immunofluorescence staining based analysis; format: functional, cell-based
Mus musculus [10] = assay: Antialzheimer activity against scopolamine-induced cognitive impairment ICR mouse model assessed as confuse escape tracks at 3 mg/kg, po administered once a day for 10 days and measured after 5 to 10 days by Morris water maze test; format: functional, organism-based; settings: time 5-10 day
Mus musculus [11] = assay: Cognitive enhancing effect in amyloid beta (1 to 42)-induced ICR mouse model assessed as increase in ACh level at 10 mg/kg […] by ELISA; format: functional, organism-based
Mus musculus [12] = assay: Antialzheimer activity against scopolamine-induced cognitive impairment ICR mouse model assessed as distance to reach target at 3 mg/kg, po administered once a day for 10 days and measured after 5 to 10 days by Morris water maze test; format: functional, organism-based; settings: time 5-10 day
Acetylcholinesterase = Acetylcholinesterase (Electrophorus electricus, UniProt O42275); assay: Inhibition of electric eel AChE using ATC and BTC iodide as substrate preincubated for 5 mins followed by substrate addition and measured after 2 mins by DTNB reagent based assay
Chain of Acetylcholinesterase (O42275 whole entry): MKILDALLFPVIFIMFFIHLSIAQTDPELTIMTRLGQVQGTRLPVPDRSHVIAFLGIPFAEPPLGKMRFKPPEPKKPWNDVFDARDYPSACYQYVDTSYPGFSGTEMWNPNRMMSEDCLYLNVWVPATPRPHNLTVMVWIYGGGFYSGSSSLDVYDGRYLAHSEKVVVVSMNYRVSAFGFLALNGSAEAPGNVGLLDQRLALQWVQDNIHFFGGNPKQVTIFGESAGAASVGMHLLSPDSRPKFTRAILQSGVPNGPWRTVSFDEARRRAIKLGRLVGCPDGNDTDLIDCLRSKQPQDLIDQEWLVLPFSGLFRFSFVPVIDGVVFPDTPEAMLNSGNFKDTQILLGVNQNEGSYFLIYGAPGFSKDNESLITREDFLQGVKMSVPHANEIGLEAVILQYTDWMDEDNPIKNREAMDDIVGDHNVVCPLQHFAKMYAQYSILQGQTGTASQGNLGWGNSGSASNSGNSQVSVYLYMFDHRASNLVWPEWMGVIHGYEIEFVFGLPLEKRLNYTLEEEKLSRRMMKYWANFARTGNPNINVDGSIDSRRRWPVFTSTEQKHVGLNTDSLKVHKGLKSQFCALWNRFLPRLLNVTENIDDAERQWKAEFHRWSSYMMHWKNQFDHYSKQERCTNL

Mus musculus [13] = assay: Antiinflammatory activity Abeta1-42-induced against ICR mouse assessed as increase in TGF-beta1 level at 10 mg/kg, po by ELISA analysis; format: functional, organism-based
[14] = biological target: T1, Nuclear factor erythroid 2-related factor 2 (Rattus norvegicus); assay: Activation of Nrf2 pathway in rat PC-12 cells assessed as increase in GCLM level at 20 uM measured after 6 hrs by Western blot analysis; format: cell-based; settings: PC12, filed as activator
SH-SY5Y [15] = assay: Neuroprotective activity against Abeta1-42-induced human SH-SY5Y cells assessed as inhibition of ROS production preincubated for 24 hrs followed by Abeta1-42 induction and measured after 24 hrs by DCFH-DA staining based fluorescence microscopic anlaysis; format: functional, cell-based; settings: dose 5.0 µM
Mus musculus [16] = assay: Neuroprotective activity against Abeta1-42-induced ICR mouse at 20 mg/kg, po by ELISA analysis; format: functional, organism-based
[17] = biological target: T1, Nuclear factor erythroid 2-related factor 2 (Rattus norvegicus); assay: Activation of Nrf2 pathway in rat PC-12 cells assessed as increase in HO-1 level at 20 uM measured after 6 hrs by Western blot analysis; format: cell-based; settings: PC12, filed as activator
SH-SY5Y [18] = assay: Neuroprotective activity against Abeta1-42-induced human SH-SY5Y cells assessed as restoration of cell viability preinubated for 2 hrs followed by Abeta1-42 induction and measured after 24 hrs by MTT assay; format: functional, cell-based; settings: time 26.0 hrs
BV-2 [19] = assay: Antiinflammatory activity against LPS-injured mouse BV-2 cells assessed as decrease in IL-1beta level at 5 uM by immunofluorescence staining based analysis; format: functional, cell-based
PC-12 = assay: Cytotoxicity against rat PC12 cells assessed as growth inhibition at 5 uM after 24 hrs by MTT assay; format: toxicity, cell-based; settings: pc-12, 24 h
HepG2-ARE-C8 = assay: Cytotoxicity against human HepG2-ARE-C8 cells assessed as reduction in cell viability at 5 and 20 uM measured for 24 hrs by MTT assay; format: functional, cell-based
[20] = biological target: T1, Nuclear factor erythroid 2-related factor 2 (Rattus norvegicus); assay: Induction of Nrf2 nuclear translocation in rat PC12 cells measured for 12 hrs by FITC staining based confocal microscopic analysis; format: cell-based; settings: filed as activator
Mus musculus [21] = assay: Antialzheimer activity against scopolamine-induced cognitive impairment ICR mouse model assessed as reduction in escape latency at 3 mg/kg, po administered once a day for 10 days and measured after 5 to 10 days by Morris water maze test; format: functional, organism-based; settings: time 5-10 day
[22] = biological target: T1, Nuclear factor erythroid 2-related factor 2 (Rattus norvegicus); assay: Induction of Nrf2 pathway in rat PC12 cells assessed as fold increase in Nrf2 level at 20 uM measured after 6 hrs by Western blot analysis; format: cell-based; settings: filed as activator
Mus musculus [23] = assay: Antiinflammatory activity Abeta1-42-induced against ICR mouse assessed as increase in TGF-beta1 level at 20 mg/kg, po by ELISA analysis; format: functional, organism-based
[24] = biological target: T1, Nuclear factor erythroid 2-related factor 2 (Rattus norvegicus); assay: Activation of Nrf2 pathway in rat PC-12 cells assessed as fold increase in Nrf2 expression level at 1 to 20 uM measured at 6 hrs by qRT-PCR analysis; format: cell-based; settings: PC12, filed as activator, dose 1-20 µM
[25] = biological target: T1, Nuclear factor erythroid 2-related factor 2 (Rattus norvegicus); assay: Activation of Nrf2 pathway in rat PC-12 cells assessed as decrease in Nrf2 accumulation in cytoplasm at 20 uM measured after 1 to 5 hrs by Western blot analysis; format: cell-based; settings: PC12, time 1-5 hrs

Cc1ccc(-c2noc(-c3cccc(OCC4CCN(Cc5cccc(F)c5)CC4)c3)n2)cn1
Non-Toxic: Activity [4] | Activity (PC-12)
active: Activity (Mus musculus [1]) | Activity (SH-SY5Y [3]) | Activity (Mus musculus [5]) | Activity [6] | Activity (BV-2 [7]) | Activity (Mus musculus [10]) | Activity (Mus musculus [11]) | Activity (Mus musculus [12]) | Activity (Mus musculus [13]) | Activity [14] | Activity (SH-SY5Y [15]) Dose-Dependent Effect | Activity [17] | Activity (SH-SY5Y [18]) | Activity [20] | Activity (Mus musculus [21]) | Activity (Mus musculus [23])
8: fold change (FC) [2]
4: fold change (FC) [8] | fold change (FC) [22] | fold change (FC) [24]
inactive: Activity (BV-2 [9]) | Activity (Mus musculus [16]) | Activity (BV-2 [19]) | Activity (HepG2-ARE-C8) | Activity [25]
70 nM: IC50 (Acetylcholinesterase)
